The series can be described thus: Pharmacokinetic evaluation test in rats. As to conditions: p.o. 100 mg/kg. The series is classed as in vivo, SD rats. Here is the method: • Animals: male SD rats • Animal administration and sample collection: Crystal forms I, II, and III were each dissolved in a mixture of 20% PEG400+80% (20% Captisol in 0.5% MC) to prepare administration formulation suspensions. The administration formulations were intragastrically administered to the SD rats at a dose of 100 mg/kg. Blood samples were collected at time points of 15 min, 30 min, 1 h, 2 h, 4 h, 6 h, 8 h, 24 h, 48 h, 72 h, and […] after administration.
One day before administration, the animals underwent jugular vein catheterization. After administration, about 300 μL of blood samples were collected via the jugular vein and then placed into anticoagulation tubes containing EDTA-K2. The blood samples were centrifuged at 4° C. and 8000 rpm for 10 min to yield plasma samples, which were prepared within 30 min after blood sample collection. The plasma samples were stored in a refrigerator at −80° C. before tests.
The samples to be tested were taken out from the refrigerator at −80° C., naturally thawed at room temperature, and then vortexed for 5 min. 20 μL of each of the 20-fold diluted plasma samples was precisely pipetted into a 1.5 mL centrifuge tube, and 300 μL of an internal standard working solution at a concentration of 10 ng/mL was added. The mixture was uniformly mixed, vortexed for 5 min, and then centrifuged at 12000 rpm for 5 mun.
50 μL of the supernatant was precisely pipetted into a 96-well plate to which water was added at 150 μL/well in advance, uniformly mixed by vortexing for 5 min, and analyzed by LC-MS/MS.
The sample to be tested was taken out from the refrigerator at −80° C., naturally thawed at room temperature, and then vortexed for 5 min. 2 μL of the plasma sample was precisely pipetted and then added, together with 28 μL of blank plasma, to a 1.5 mL centrifuge tube, and 450 μL of an internal standard working solution (a solution of tolbutamide in acetonitrile) at a concentration of 100 ng/mL was added. The mixture was uniformly mixed, vortexed for 5 min, and then centrifuged at 12000 rpm for 5 min. 50 μL of the supernatant was precisely pipetted into a 96-well plate to which water was added at 150 μL/well in advance, uniformly mixed by vortexing for 5 min, and analyzed by LC-MS/MS.
The test compound concentrations were output by Analyst 1.7.1 of AB Sciex. Parameters such as mean, standard deviation, and coefficient of variation were calculated by Microsoft Excel. PK parameters were calculated by Pharsight Phoenix 8.2 software NCA (Tmax was in median).

The mark [1] stands for this setting: male SD rats, mean, n = 3, 100 mg/kg.

By Cmax is commonly meant the maximum level reached in the sampled fluid or tissue. As usually defined, the Tmax is the time at which the peak concentration occurs. Consider `Nc1nccn2c(C34CCC(NC(=O)CN5CCOCC5)(CC3)C4)nc(-c3ccc(C(=O)Nc4cc(C(F)(F)F)ccn4)cc3)c12` (single isomer, unassigned) [Crystal form II, 4-(8-amino-3-(4-(2-morpholinoacetamido)bicyclo[2.2.1]heptan-1-yl)imidazo[1,5-a]pyrazin-1-yl)-N-(4-(trifluoromethyl)pyridin-2-yl)benzamide], for which the Pharmacokinetic properties entry (SD rats) is recorded as “very good pharmacokinetic properties”. Under setting [1], the “AUCinf—obs” value is 2545.383 µg·h/mL and the AUClast was determined as 2515.536 µg·h/mL. In addition, the Cmax (male, SD, rat, plasma, po, 100 mg/kg, male SD rats, mean, n = 3, read-out: Cmax) was 145 µg/mL. Moreover, where the note is “male, SD, rat, plasma, po, 100 mg/kg, male SD rats, mean, n = 3, read-out: tz1/2 (terminal half-life) (converted)”, the half-life was 7.74 h. In addition, where the note is “male, SD, rat, plasma, po, 100 mg/kg, male SD rats, n = 3, Tmax in median, read-out: Tmax”, the Tmax stood at 2 h.
